Blank lines part the entries; values can stand above or below the substance they belong to.
Tests used:
Type in all cases: physicochemical
[1] = Deamidation of Asn pentapeptides GlyXxxAsnYyyGly (medians over Xxx)
Description: (§1) Median values for carboxyl side residues of Asn and Gln were used in these derivations. The measurements for Asn are the most reliable and are used for these derivations. […] The half-time of hydrolysis was assumed to be 8010 days, but may be faster or slower. Regardless of the derivation based on Asn, calculations of Gln based on these values are found to approximately agree with the currently available data.
(§2) The natural log of the median hydrolysis-corrected rate constants times 100 (s^−1) for the Asn and Gln pentapeptides as a function of carboxyl-side residue as computed from the experimental data are listed in Table 1. The first columns are (100)(ln(k)) and are directly proportional to the Arrhenius activation energy. The second columns are normalized to Gly. This leaves only the side-chain effects and also defines the effect of the Gly hydrogen side-chain or a similar atom with mostly steric effects in this β-position as zero.
For most Asn peptides the computed result should be within 10% or less of the experimental value in 37° C., pH 7.4, 0.15 M Tris-HCl buffer or similar conditions. Gln rates are more affected by hydrolysis and cannot be verified to as high an accuracy with the current data. For Gln peptides and long lived Asn peptides, correction for hydrolysis should be made. With a hydrolysis value of 8010 days: t1/2total=1/(1/8010+1/t1/2calculated)

[2] = Deamidation of Gln pentapeptides GlyXxxGlnYyyGly (medians over Xxx); details: Gln versus Asn peptide
Description: as §1, §2
This model for Asn deamidation is also applicable to Gln deamidation, although Gln deamidation rates have not been as well characterized. While there may be important differences in the functional group effects for the longer Gln chain, the steric effects are similar as illustrated in FIG. 6. […] The fundamental difference between Asn and Gln rates has been removed by subtracting the Gln values from GlyXxxGlnGlyGly and the Asn values from GlyXxxAsnGlyGly.

[3] = Deamidation of insulin at Asn(B3)
Protocol: As an example, consider the sequence Phe-ValAsn(B3)GlnHis of insulin. This peptide deamidates at Asn(B3) with a half-time of 136 days at 37° C., pH 7.4 sodium acetate, 0.1% methyl paraben, 0.7% NaCl.

experimental deamidation half-time ([1]; 37° C., pH 7.4, 0.15 M Tris-HCl buffer): 46.2 days
Substance: GlyXxxAsnThrGly

difference between GlyXxxGlnGlyGly and GlyXxxAsnGlyGly, (100)ln(k) scale [2]: 644.8
Substance: GlyXxxGlnGlyGly

deamidation rate (50% chance of deamidating) [1]: about 1 day
Substance: GlyXxxAsnGlyGly

Substance: insulin
deamidation half-time at Asn(B3) ([3]; 37° C., pH 7.4 sodium acetate, 0.1% methyl paraben, 0.7% NaCl): 136 days
(100)ln(k) subtracted from the AsnGly value ([3]; converted from the 136 day half-time): 478.3
